Assay results reported in patent US12486253B2, “Therapeutics for the degradation of mutant BRAF” (C4 THERAPEUTICS, INC., priority 2021, dated 2025).
Several values for one entry are separate records, joined by “and”; a condition that tells them apart may be missing. Identical values can stand only once.

Molecular target: BRAF V600E (Homo sapiens, UniProt P15056, V600E)
Test: HiBiT cellular BRAF^V600E degradation assay
Type: cell-based
Details: A375.10 cells, 24 h; for DC50: concentration at which 50% of total cellular BRAF^V600E is degraded; for Emax / HiBit 24 h Emax: residual protein remaining in the cell; for Emax: read-out: HiBit 24 h Emax

Chain of BRAF V600E (P15056 whole entry V600E): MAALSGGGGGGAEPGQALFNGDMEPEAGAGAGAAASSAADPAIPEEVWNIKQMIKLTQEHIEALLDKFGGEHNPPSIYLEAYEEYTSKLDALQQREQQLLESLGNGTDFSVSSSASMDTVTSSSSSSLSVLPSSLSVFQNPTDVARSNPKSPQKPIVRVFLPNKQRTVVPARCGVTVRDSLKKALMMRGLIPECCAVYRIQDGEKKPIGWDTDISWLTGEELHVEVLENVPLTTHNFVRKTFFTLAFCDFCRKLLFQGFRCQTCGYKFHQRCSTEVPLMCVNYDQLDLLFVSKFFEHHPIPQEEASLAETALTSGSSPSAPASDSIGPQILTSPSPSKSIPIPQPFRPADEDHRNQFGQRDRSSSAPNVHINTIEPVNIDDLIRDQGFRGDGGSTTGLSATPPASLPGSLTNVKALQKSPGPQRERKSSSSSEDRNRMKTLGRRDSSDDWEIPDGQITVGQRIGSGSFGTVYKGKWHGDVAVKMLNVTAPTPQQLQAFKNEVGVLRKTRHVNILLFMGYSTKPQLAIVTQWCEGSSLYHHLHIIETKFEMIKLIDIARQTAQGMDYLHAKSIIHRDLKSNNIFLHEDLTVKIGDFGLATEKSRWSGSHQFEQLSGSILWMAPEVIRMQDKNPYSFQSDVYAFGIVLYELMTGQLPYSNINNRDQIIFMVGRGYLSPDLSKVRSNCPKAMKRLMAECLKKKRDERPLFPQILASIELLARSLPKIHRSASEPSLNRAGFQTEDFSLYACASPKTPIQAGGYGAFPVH

| SMILES | DC50 [nM] | Emax [%] | HiBit 24 h Emax |
| --- | --- | --- | --- |
| CCN(C)S(=O)(=O)Nc1ccc(F)c(Oc2ccc3ncn([C@@H]4COC5(CCN(C(=O)CN6CCC(c7ccc(NC8CCC(=O)NC8=O)cc7F)CC6)CC5)C4)c(=O)c3c2)c1C#N (single isomer, unassigned) [Example 33] | 32.6 | 8.77 | – |
| CCN(C)S(=O)(=O)Nc1ccc(F)c(Oc2ccc3ncn([C@H]4COC5(CCN(C(=O)CN6CCC(c7ccc(NC8CCC(=O)NC8=O)cc7F)CC6)CC5)C4)c(=O)c3c2)c1C#N (single isomer, unassigned) [Example 34] | 29.9 | 10.8 | – |
| CCN(C)S(=O)(=O)Nc1ccc(F)c(Oc2ccc3ncn([C@H]4CCC5(CCN(C(=O)CN6CCC(c7ccc(NC8CCC(=O)NC8=O)cc7F)CC6)CC5)C4)c(=O)c3c2)c1C#N (single isomer, unassigned) [Example 40] | 8.13 | 7.08 | – |
| CCN(C)S(=O)(=O)Nc1ccc(F)c(Oc2ccc3ncn([C@@H]4CCC5(CCN(C(=O)CN6CCC(c7ccc(NC8CCC(=O)NC8=O)cc7F)CC6)CC5)C4)c(=O)c3c2)c1C#N (single isomer, unassigned) [Example 41] | 16.1 | 9.27 | – |
| CCN(C)S(=O)(=O)Nc1ccc(F)c(Oc2ccc3ncn([C@H]4COC5(CCN(C(=O)CN6CCC(c7ccc(NC8CCC(=O)NC8=O)cc7F)CC6)CC5)C4)c(=O)c3c2Br)c1C#N (single isomer, unassigned) [Example 73] | 30.7 | 12 | – |
| CCN(C)S(=O)(=O)Nc1ccc(F)c(Oc2ccc3ncn([C@H]4COC5(CCN(C(=O)CN6CCC(c7ccc(NC8CCC(=O)NC8=O)cc7F)CC6)CC5)C4)c(=O)c3c2Cl)c1C#N (single isomer, unassigned) [Example 77] | 31.8 | 9.51 | – |
| CCN(C)S(=O)(=O)Nc1ccc(F)c(Oc2ccc3ncn([C@@H]4COC5(CCN(C(=O)CN6CCC(c7ccc(NC8CCC(=O)NC8=O)cc7F)CC6)CC5)C4)c(=O)c3c2Cl)c1C#N (single isomer, unassigned) [Example 78] | 49.7 | 9.7 | – |
| CCN(C)S(=O)(=O)Nc1ccc(F)c(Oc2ccc3ncn([C@H]4CCC5(CCN(C(=O)CN6CCC(c7ccc(NC8CCC(=O)NC8=O)cc7F)CC6)CC5)C4)c(=O)c3c2Cl)c1C#N (single isomer, unassigned) [Example 79] | 20.1 | 12.9 | – |
| CCN(C)S(=O)(=O)Nc1ccc(F)c(Oc2ccc3ncn([C@@H]4CCC5(CCN(C(=O)CN6CCC(c7ccc(NC8CCC(=O)NC8=O)cc7F)CC6)CC5)C4)c(=O)c3c2Cl)c1C#N (single isomer, unassigned) [Example 80] | 30.5 | 13.8 | – |
| CCN(C)S(=O)(=O)Nc1ccc(F)c(Nc2ccc3ncn([C@H]4COC5(CCN(C(=O)CN6CCC(c7ccc(NC8CCC(=O)NC8=O)cc7F)CC6)CC5)C4)c(=O)c3c2)c1C#N (single isomer, unassigned) [Example 82] | 20.7 | 6.45 | – |
| CCN(C)S(=O)(=O)Nc1ccc(F)c(Oc2ccc3ncn([C@H]4COC5(CCN(C6CCC(c7ccc(NC8CCC(=O)NC8=O)cc7F)CC6)CC5)C4)c(=O)c3c2)c1C#N (single isomer, unassigned) [Example 83] | 16.3 | – | 27.77% |

The remaining lines, values ahead:

| DC50 [nM] | Emax [%] | HiBit 24 h Emax | SMILES |
| --- | --- | --- | --- |
| – | – | 8.5% and 8.05% | CCN(C)S(=O)(=O)Nc1ccc(F)c(Oc2ccc3ncn([C@H]4COC5(CCN(C6CCC(c7ccc(NC8CCC(=O)NC8=O)cc7F)CC6)CC5)C4)c(=O)c3c2)c1C#N (single isomer, unassigned) [Example 131] |
| 12.4 | 11.5 | – | CCN(C)S(=O)(=O)Nc1ccc(F)c(Oc2ccc3ncn(C4COC5(CCN(C(=O)CN6CCC(c7ccc8c(C9CCC(=O)NC9=O)nn(C)c8c7)CC6)CC5)C4)c(=O)c3c2)c1C#N (single isomer, unassigned) [Example 150] |
| 11.9 | 31.5 | – | CCN(C)S(=O)(=O)Nc1ccc(F)c(Oc2ccc3ncn([C@H]4COC5(CCN(C(=O)C[C@H]6CC[C@H](c7ccc8c(C9CCC(=O)NC9=O)nn(C)c8c7)CC6)CC5)C4)c(=O)c3c2)c1C#N (single isomer, unassigned) [Example 169] |
| 30.9 | 21.2 | – | CCN(C)S(=O)(=O)Nc1ccc(F)c(Oc2ccc3ncn([C@H]4COC5(CCN(C(=O)C[C@H]6CC[C@@H](c7ccc8c(C9CCC(=O)NC9=O)nn(C)c8c7)CC6)CC5)C4)c(=O)c3c2)c1C#N (single isomer, unassigned) [Example 170] |
| 25.6 | 21.2 | – | CCN(C)S(=O)(=O)Nc1ccc(F)c(Oc2ccc3ncn([C@H]4COC5(CCN(C(=O)CC6(O)CCN(c7cc8c(cc7F)c(N7CCC(=O)NC7=O)nn8C)CC6)CC5)C4)c(=O)c3c2F)c1C#N (single isomer, unassigned) [Example 174] |
| 6.13 | 19.1 | – | CCN(C)S(=O)(=O)Nc1ccc(F)c(Nc2ccc3ncn([C@H]4COC5(CCN(C(=O)CC6(O)CCN(c7cc8c(cc7F)c(N7CCC(=O)NC7=O)nn8C)CC6)CC5)C4)c(=O)c3c2)c1C#N (single isomer, unassigned) [Example 178] |
| 19.9 | 19.1 | – | CCN(C)S(=O)(=O)Nc1ccc(F)c(Oc2ccc3ncn([C@H]4COC5(CCN(C(=O)CC6(O)CCN(c7cc8c(cc7F)c(N7CCC(=O)NC7=O)nn8C)CC6)CC5)C4)c(=O)c3c2OC)c1C#N (single isomer, unassigned) [Example 181] |
| 8.55 | 18 | – | CCN(C)S(=O)(=O)Nc1ccc(F)c(Nc2ccc3ncn([C@H]4COC5(CCN(C(=O)CC6(O)CCN(c7cc8c(cc7F)c(N7CCC(=O)NC7=O)nn8C)CC6)CC5)C4)c(=O)c3c2F)c1C#N (single isomer, unassigned) [Example 184] |
| 5.77 | 18.5 | – | CCN(C)S(=O)(=O)Nc1ccc(F)c(Nc2ccc3ncn([C@H]4COC5(CCN(C(=O)CC6(O)CCN(c7cc8c(cc7F)c(N7CCC(=O)NC7=O)nn8C)CC6)CC5)C4)c(=O)c3c2Cl)c1C#N (single isomer, unassigned) [Example 185] |
| 5.17 | 23.9 | – | CCN(C)S(=O)(=O)Nc1ccc(F)c(Nc2ccc3ncn([C@H]4COC5(CCN(C(=O)CC6CCN(c7cc8c(cc7F)c(N7CCC(=O)NC7=O)nn8C)CC6)CC5)C4)c(=O)c3c2F)c1C#N (single isomer, unassigned) [Example 202] |
| 37.5 | 11.3 | – | CCN(C)S(=O)(=O)Nc1ccc(F)c(Oc2ccc3ncn([C@H]4COC5(CCN(C(=O)CN6CC[C@H](c7cc8c(cc7F)c(N7CCC(=O)NC7=O)nn8C)C(F)(F)C6)CC5)C4)c(=O)c3c2)c1C#N (single isomer, unassigned) [Example 203] |
| 29.8 | 10.9 | – | CCN(C)S(=O)(=O)Nc1ccc(F)c(Oc2ccc3ncn([C@H]4COC5(CCN(C(=O)CN6CC[C@@H](c7cc8c(cc7F)c(N7CCC(=O)NC7=O)nn8C)C(F)(F)C6)CC5)C4)c(=O)c3c2)c1C#N (single isomer, unassigned) [Example 204] |
| 20 | 24.4 | – | CCN(C)S(=O)(=O)Nc1ccc(F)c(Oc2ccc3ncc(C4COC5(CCN(C(=O)CC6(O)CCN(c7cc8c(cc7F)c(N7CCC(=O)NC7=O)nn8C)CC6)CC5)C4)nc3c2)c1C#N (single isomer, unassigned) [Example 222] |
| > 5000 | 65.3 | – | CCN(C)S(=O)(=O)Nc1ccc(F)c(Oc2ccc3ncc([C@H]4COC5(CCN(C(=O)CC6(O)CCN(c7cc8c(cc7F)c(N7CCC(=O)NC7=O)nn8C)CC6)CC5)C4)c(OC)c3c2)c1C#N (single isomer, unassigned) [Example 225] |
